The record followed here is PMC9079742, “Branched copolymer-stabilised nanoemulsions as new candidate oral drug delivery systems” (RSC Advances, 2018).

Data set [1] concerns Caco-2 monolayers. The experiment in a line: Caco-2 transcellular permeation model (transwell). It counts as in vitro ADME, human. The procedure:
(§1) The apparent permeability (Papp) of the candidate drug-loaded nanoemulsions were determined using the Caco-2 cells after forming a confluent monolayer, with tight junctions between the cells (confirmed by TEER), on a porous transwell membrane; this is a widely-used model for oral absorption.[34] Within this assay, the cells polarise to present microvilli on the gut (apical; A) side of the cells,[35] reproducing the morphology and function of the small intestine. The blood (basolateral; B) side of the cells models the interface with the systemic circulation. […]
(§2) droplets were below 300 nm in diameter.
(§3) During the 2 minutes, the vial was […]
(§4) to achieve a creamy emulsion. […]
(§5) Caco-2 Transcellular Permeation Model
(§6) After this time, culture media was […]
(§7) and immediately frozen at -40°C for subsequent batch analysis via HPLC. Sink conditions were determined as being satisfied when <10% of starting concentration had permeated. Papp was determined with the following equation: […]
(§8) Where A is the concentration in the sample, T is the time in seconds at which the sample was collected, V is the total volume of sample contained in the chamber being sampled, S is the initial starting concentration of the drug and 0.3 is the surface area in cm2 of the transwell insert on which the Caco-2 […]
(§9) High Performance Liquid Chromatography
(§10) 200 μL of sample (thawed from -40°C storage) was added to 1 ml of HPLC grade acetonitrile in a universal tube and vortexed for 30 seconds. The universal tubes where then centrifuged for 5 minutes at 4°C at 13,300 rpm, after which the supernatant was transferred to fresh glass tubes. These tubes were placed in a vacuum centrifuge drier and heated to 35°C to remove excess acetonitrile and dry down the sample to a pellet. Pellets were then re-suspended in 200 μL fresh 20% HPLC grade acetonitrile, 80% HPLC grade water, and transferred to 1.8 ml HPLC vials and sealed for HPLC analysis.
(§11) The mobile phase (C) consisted of 95% water and 5% acetonitrile, with 5mM final concentration of ammonium formate. The elution buffer (D) consisted of 90% acetonitrile and 10% water with no ammonium formate. A calibration curve was produced using a 1:2 dilution from 20,000 ng/ml to 39 ng/ml, with separate quality control samples at 600 ng/ml, 3000 ng/ml and 15,000 ng/ml. The initial starting conditions of each run were 100% C, changing to 92% D / 8% C after 30 seconds, holding at this percentage for 5 minutes before raising to 100% D for 1 minute. The final 2 minutes of the run returned the column to 100% of C, ready for the injection of the next sample. The EFV was eluted at around 4.3 minutes into the run. The lower limit of quantification was 78 ng/mL, with intraday variability <20% and inter day variability <15%. […]
(§12) Plates were incubated for 5 days at 37°C and 5%
(§13) CO2. Activity of both aqueous and nanoformulations against HIV-1 IIIB was determined by quantifying the amount of live cells in each condition by means of an MTT cell viability assay. Concentrations of […]
(§14) was due solely to HIV infection.
A general note: Caco-2 cells form a polarised layer with tight junctions and transporters.

Data set [2] can be described thus: Caco-2 transcellular permeation model (transwell). As to conditions: human, Caco-2; for Papp A→B at 2 h, 10 μM / Papp B→A at 2 h, 10 μM: aq/DMSO solution or castor oil nanoemulsion, N=4. It counts as in vitro ADME, human. The procedure: as §1, §2, §3, §4, §5, §6, §7, §8, §9, §10, §11, §12, §13, §14
The nature of data set [3]: Drug solubility in natural oils. It is filed as physicochemical. As to conditions: oil or lipid.
Data set [4] deals with HIV-1 IIIB. The experiment in a line: Antiviral activity assay (MTT viability of infected MT4 cells). It counts as cell-based. As to conditions: Human immunodeficiency virus 1, 120 h, HIV-1 IIIB-infected MT4 cells, 5 days incubation, N = 4.
Description: The potential ability to enhance the oral permeability of the antiretroviral drugs LPV and EFV may lead to increased drug absorption and a subsequent decrease in oral dose required to treat HIV patients. Drug permeation through the gut model employed here provides no information about whether free drug or intact nanoemulsions have traversed the epithelium. The potential for nanoemulsions entering the systemic circulation after in vivo absorption necessitates assessment of antiviral activity of the ARV-containing droplets and this was undertaken using HIV-1 IIIB-infected MT4 cells. […] Activity against the virus was determined by using an MTT cell viability assay to assess the number of live cells as viral replication leads to cell death.
Fig. 4 Antiviral activity of aqueous (circles) and nanoemulsion (triangles) formulations containing (A) EFV; and (B) LPV after 5 days incubation with MT4 cells and HIV-1 IIIB. Viral kill was derived by using MTT assay to quantify the metabolic activity of the MT4 cells, using this a proxy of cellular viability. […] Data expressed as ± SEM, N = 4. […]
as §7

Data set [5] in a line: MTT cytotoxicity assay. To be noted: human, Caco-2 cells, aqueous/DMSO solution. It is filed as cell-based. In general terms: Tetrazolium assays rely on reduction of a dye to a coloured formazan, in cell work by metabolically active cells.
Description: The inherent cytotoxicity of the branched copolymer was evaluated using the CellTiterGlo® ATP assay whilst the stabilised nanoemulsions were studied using a 3-(4,5-dimethylthiazol-2-yl)-2,5-diphenyltetrazolium bromide (MTT) assay which employs the reduction of MTT to formazan to establish changes in mitochondrial enzyme activity (Fig. S5 ^†).
Cellular Cytotoxicity Assay
Approximately 100,000 cells per 100 L were seeded per well in a 96 well tissue culture plate, leaving
24 hours for cells to adhere to the plate. After this 24-hour period, media was aspirated from all wells
and replaced with fresh complete culture media containing appropriate sample concentrations. A
maximal drug concentration of 10 μM was used, decreasing in a 1:1 dilution series. For blank emulsion
samples were an equivalent volume of nanoemulsion was used to prepare the sample, such that the
volume of nanoemulsion was the same as those in the drug loaded nanoemulsion samples. Plates
were left for between 1 and 5 days, after which time 20 L of 5 mg/mL MTT reagent (3-(4,5-
dimethylthiazol-2-yl)-2,5-diphenyltetrazolium bromide) was added to every well and left for 2 hours. […]
formazan crystals. Plates were then read on a Tecan GENios plate reader (Tecan Group, Manndorf,
Switzerland) reader set to absorbance mode, with wavelength at 560 nm.

The structures appear in SMILES notation. Converted amounts (≈) assume the structure as drawn.

Consider `Cc1cccc(C)c1OCC(=O)N[C@@H](Cc1ccccc1)[C@@H](O)C[C@H](Cc1ccccc1)NC(=O)[C@H](C(C)C)N1CCCNC1=O` [LPV, lopinavir], for which the “Permeation in emulsion form relative to control within aqueous DMSO vehicle” value in data set [1] (human, Caco-2, 2 h, 10 μM) is “approximately 10 fold”. Moreover, in data set [2], the efflux ratio (commonly a quotient of directional permeabilities that is used to spot active efflux) at 1 h was 1.11; the efflux ratio at 2 h was 4.78; the Papp A→B (usually how fast a substance crosses the layer from the apical side) at 2 h, 10 μM is 2.7 ×10⁻⁶ cm/s; the Papp B→A (as a rule, how fast a substance crosses the layer from the basolateral side) at 2 h, 10 μM worked out at 12.9 ×10⁻⁶ cm/s. In addition, the solubility (commonly the dissolved amount per volume that the medium holds) in data set [3] (in castor oil) was ~25 mg/mL (≈ 39.8 mM). The solubility in data set [3] (in peanut oil) is < 12 mg/mL. The solubility in data set [3] (in soybean oil) is < 12 mg/mL. Moreover, the IC50 – broadly, the concentration that gives 50% inhibition – in data set [4] turned out to be 460 nM.

For the compound `O=C1Nc2ccc(Cl)cc2[C@@](C#CC2CC2)(C(F)(F)F)O1` [EFV, efavirenz], the “Difference in permeation, emulsion form versus aqueous DMSO control” value in data set [1] (Caco-2) was “very limited difference”. Moreover, in data set [2], the efflux ratio at 1 h amounted to 3.98; the efflux ratio at 2 h was found to be 3.11; the Papp A→B at 2 h, 10 μM was 8.21 ×10⁻⁶ cm/s; the apparent permeability from basolateral to apical (Papp B→A) at 2 h, 10 μM came to 25.5 ×10⁻⁶ cm/s. Further, half-maximal cytotoxicity in data set [5] (CC50) was put at 55000 nM. For the same compound, the solubility in data set [3] (in castor oil) was ≥ 50 mg/mL. Moreover, in data set [3] (in peanut oil), the solubility was ≥ 50 mg/mL. Further, in data set [3] (in soybean oil), the solubility was ≥ 50 mg/mL. Further, the IC50 in data set [4] was ~1250 nM.
